Data on three compounds can be found in ChEMBL document CHEMBL5126537, “Influenza-existing drugs and treatment prospects” (Eur J Med Chem, 2022).

SMILES strings stand for the structures. A value given as a limit tells only on which side of the number the result lay.

In data set [1] the test system is Influenza A virus. The experiment in a line: Antiviral activity against Influenza A virus A/PR/8/34 (H1N1) infected in MDCK cells assessed as inhibition of viral entry preincubated for 1 hr followed by infection in MDCK cells measured after 1 hr by focus forming assay. The format is functional, organism-based.
Data set [2] can be described thus: Cytotoxicity against MDCK cells. The format is toxicity, cell-based, Canis lupus familiaris. Particulars: dog.
Data set [3] can be described thus: Elimination half life in INH dosed mouse lungs. Type of data set: ADME, organism-based, Lung. To be noted: in vivo, inhaled_or_intranasal.

As a reminder, the IC50 is the concentration at which inhibition is half-maximal. `COc1cc(OC)c2c(=O)c(O)c(-c3ccc(OC)c(OC)c3)oc2c1`: in data set [1], the IC50 was 36 µM.
Broadly, the CC50 is the concentration at which the toxic effect on the cells reaches its halfway point. Low readings indicate harm at low concentration, high ones better tolerance by the cells. The compound `NC(=O)c1nc(F)c[nH]c1=O` [FAVIPIRAVIR] showed a 50% cytotoxic concentration (CC50) in data set [2] of more than 2000 µg/mL.
Compound `CCCCCCCC(=O)OC[C@@H](O)[C@@H](OC)[C@@H]1OC(C(=O)O)=C[C@H](NC(=N)N)[C@H]1NC(C)=O` [LANINAMIVIR OCTANOATE] yielded a t1/2 in data set [3] of 41 h.
